Laboratory results taken from patent US20190053492A1, “SUBSTITUTED PYRIDINE COMPOUNDS AS PESTICIDES” (Bayer CropScience Aktiengesellschaft, priority 2016, published 2019).
Read-outs that look alike come from different tables or passages of the source.

Columns and labels:
Lucilia cuprina = Lucilia cuprina test; type: in vivo; details: application rate 100 ppm, after 2 days, L1 larvae
Experimental: Lucilia cuprina Test Solvent: dimethyl sulphoxide To produce a suitable active ingredient formulation, 10 mg of active ingredient are mixed with 0.5 ml of dimethyl sulphoxide, and the concentrate is diluted with water to the desired concentration. About 20 L1 larvae of the Australian sheep blowfly (Lucilia cuprina) are transferred into a test vessel containing minced horsemeat and the active ingredient formulation of the desired concentration. After 2 days, the kill in % is determined. 100% means that all the larvae have been killed; 0% means that no larvae have been killed.

Phaedon cochleariae = Phaedon cochleariae spray test; type: in vivo; details: after 7 days, Chinese cabbage leaf discs; for pest or weed control at 100 g/ha / pest or weed control at 500 g/ha: Phaedon cochleariae, foliar, 168 h, read-out: efficacy (beetle larvae killed)
Outline: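 Larval kill read at day 7 as percent, where 100% means every larva dead and 0% none; larvae were placed on dried Brassica pekinensis leaf discs previously sprayed with the formulation (acetone/dimethylformamide solvent, alkylaryl polyglycol ether emulsifier, water).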

Ctenocephalides felis = Ctenocephalides felis oral test; type: in vivo; details: application rate 100 ppm in citrated cattle blood, after 2 days, adult cat fleas; for pest or weed control at 100 ppm: Ctenocephalides felis, po, 48 h, read-out: efficacy (kill in %)
Experimental: Ctenocephalides felis—Oral Test Solvent: dimethyl sulphoxide To produce a suitable active ingredient formulation, 10 mg of active ingredient are mixed with 0.5 ml of dimethyl sulphoxide. Dilution with citrated cattle blood gives the desired concentration. About 20 unfed adult cat fleas (Ctenocephalides felis) are placed into a chamber which is closed at the top and bottom with gauze. A metal cylinder whose bottom end is closed with parafilm is placed onto the chamber. The cylinder contains the blood/active ingredient formulation, which can be imbibed by the fleas through the parafilm membrane. After 2 days, the kill in % is determined. 100% means that all of the fleas have been killed; 0% means that none of the fleas have been killed.

Spodoptera frugiperda = Spodoptera frugiperda spray test; type: in vivo; details: after 7 days, maize leaf discs; for pest or weed control at 100 g/ha / pest or weed control at 500 g/ha: Spodoptera frugiperda, foliar, 168 h, read-out: efficacy (caterpillars killed)
Outline: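 Efficacy in % was scored at 7 days against armyworm caterpillars placed on dried, compound-sprayed Zea mays leaf discs. Compound was dissolved in acetone/dimethylformamide and diluted in water with 1000 ppm alkylaryl polyglycol ether. 100% means all caterpillars were killed.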

[1] = log P by HPLC on reversed-phase column (C 18), EEC Directive 79/831 Annex V.A8; type: physicochemical; details: 55° C.; for LOGP_HCOOH: log P (HCOOH); for LOGP_NEUTRAL: log P, neutral range; for chromatographic logP: reversed-phase HPLC column (C 18)
Experimental: Temperature: 55° C. […] Called log P (HCOOH) in the table. […] Called log P (neutral) in the table.

[2] = acidic range pH 2.7, 0.1% aqueous formic acid and acetonitrile, reversed-phase column (C 18)
[3] = HPLC on reversed-phase column (C 18)
[4] = acidic range at pH 2.7, 0.1% aqueous formic acid and acetonitrile, HPLC on reversed-phase column (C 18)
[5] = pH 2.7, LC-MS acidic range, pH 2.7, 0.1% formic acid/acetonitrile, read-out: log P (acidic) / log P (HCOOH)

Row | Structure (SMILES) | efficacy (kill in %) (Lucilia cuprina) [%] | efficacy (beetle larvae killed) (Phaedon cochleariae; application rate 500 g/ha) [%] | efficacy (kill in %) (Ctenocephalides felis) [%] | efficacy (caterpillars killed) (Spodoptera frugiperda; application rate 500 g/ha) [%] | LOGP_HCOOH [1, 2] | LOGP_NEUTRAL [1, 3] | efficacy (beetle larvae killed) (Phaedon cochleariae; application rate 100 g/ha) [%] | efficacy (caterpillars killed) (Spodoptera frugiperda; application rate 100 g/ha) [%] | LOGP_HCOOH [1, 4] | pest or weed control at 100 g/ha (Phaedon cochleariae; application rate 100 g/ha) [%] | pest or weed control at 500 g/ha (Phaedon cochleariae; application rate 500 g/ha) [%] | pest or weed control at 100 ppm (Ctenocephalides felis) [%] | pest or weed control at 100 g/ha (Spodoptera frugiperda; application rate 100 g/ha) [%] | pest or weed control at 500 g/ha (Spodoptera frugiperda; application rate 500 g/ha) [%] | chromatographic logP [1, 5] | chromatographic logP ([1]; pH 7.8, LC-MS neutral range, pH 7.8, ammonium hydrogencarbonate/acetonitrile, read-out: log P (neutral))
1 | N#Cc1ccc(CNC(=O)c2cc(-c3ccc(Br)cc3)cc(NC(=O)C3CC3)n2)cc1 [Example I-053] | 100 | 100 | 95 | 100 | 3.73 | 3.61 | – | – | – | – | – | – | – | – | – | –
2 | CC(C)C(=O)Nc1cc(-c2ccc(OC(F)(F)F)cc2)cc(C(=O)NCc2c(F)cc(C#N)cc2F)n1 [Example I-070] | 100 | 100 | 98 | 83 | 4.31 | 4.15 | – | – | – | – | – | – | – | – | – | –
3 | N#Cc1ccc(CNC(=O)c2cc(-c3ccc(OC(F)(F)F)cc3)cc(NC(=O)C3CC3)n2)cc1F [Example I-080] | 100 | 100 | 100 | 100 | 4.01 | 3.87 | 100 | 83 | – | – | – | – | – | – | – | –
4 | CC(C)C(=O)Nc1cc(-c2ccc(OC(F)(F)F)cc2)cc(C(=O)NCc2ccc(C#N)cc2F)n1 [Example I-081] | 100 | 100 | 100 | 100 | 4.22 | 4.09 | 83 | 100 | – | – | – | – | – | – | – | –
5 | N#Cc1cc(F)c(CNC(=O)c2cc(-c3ccc(OC(F)(F)F)cc3)cc(NC(=O)C3CC3)n2)c(F)c1 [Example I-082] | 100 | 100 | 100 | 100 | 4.12 | 4.01 | 100 | 100 | – | – | – | – | – | – | – | –
6 | O=C(NCc1ccc(-c2ncon2)cc1)c1cc(-c2ccc(SC(F)(F)F)cc2)cc(NC(=O)C2CC2)n1 [Example I-093] | 100 | 100 | 95 | 100 | 4.28 | 4.15 | 100 | – | – | – | – | – | – | – | – | –
7 | O=C(NCc1ccc(-c2ncon2)cc1)c1cc(-c2ccc(OC(F)(F)F)cc2)cc(NC(=O)C2CC2)n1 [Example I-094] | 100 | 100 | 100 | 100 | 3.96 | 3.84 | 100 | – | – | – | – | – | – | – | – | –
8 | N#Cc1ccc(CNC(=O)c2cc(-c3ccc(S(=O)(=O)C(F)(F)F)cc3)cc(NC(=O)C3CC3)n2)cc1 [Example I-096] | 100 | 100 | 100 | 100 | – | 3.47 | 100 | 100 | – | – | – | – | – | – | – | –
9 | Cc1cc(-c2cc(NC(=O)C3CC3)nc(C(=O)NCc3ccc(C#N)cc3)c2)ccc1OC(F)(F)F [Example I-098] | 100 | 100 | 100 | 100 | 4.21 | 4.11 | 100 | 100 | – | – | – | – | – | – | – | –
10 | CC(C)(C#N)NC(=O)c1cc(-c2ccc(OC(F)(F)F)cc2)cc(NC(=O)C2CC2)n1 [Example I-108] | 90 | 83 | 100 | 83 | 3.77 | 3.64 | – | 100 | – | – | – | – | – | – | – | –
11 | CCCCNC(=O)c1cc(-c2ccc(OC(F)(F)F)cc2)cc(NC(=O)C2CC2)n1 [Example I-113] | 100 | 100 | 100 | 100 | – | 4.06 | – | 83 | 4.18 | – | – | – | – | – | – | –
12 | O=C(NC1COC1)c1cc(-c2ccc(OC(F)(F)F)cc2)cc(NC(=O)C2CC2)n1 [Example I-117] | 95 | 100 | 100 | 100 | – | 2.95 | – | 100 | 3.07 | – | – | – | – | – | – | –
13 | N#Cc1ccc(CNC(=O)c2cc(-c3ccc(S(=O)(=O)C(F)(F)F)cc3)cc(NC(=O)C3CC3)n2)cc1F [Example I-120] | 100 | 100 | 100 | 100 | – | 3.65 | 100 | 100 | 3.74 | – | – | – | – | – | – | –
14 | N#Cc1ccc(CNC(=O)c2cc(-c3ccc(OC(F)(F)F)cc3F)cc(NC(=O)C3CC3)n2)cc1 [Example I-124] | 100 | 100 | 100 | 100 | – | 3.78 | 100 | 100 | 3.87 | – | – | – | – | – | – | –
15 | O=C(NCC1CC1)c1cc(-c2ccc(OC(F)(F)F)cc2)cc(NC(=O)C2CC2)n1 [Example I-141] | 100 | 100 | 100 | 100 | – | – | 100 | 83 | 3.84 | – | – | – | – | – | – | –
16 | N#Cc1ccc(CNC(=O)c2cc(-c3ccc(C(F)(F)C(F)(F)F)c(F)c3)cc(NC(=O)C3CC3)n2)cc1 [Example I-149, N-(4-Cyanobenzyl)-6-[(cyclopropylcarbonyl)amino]-4-[3-fluoro-4-(pentafluoroethyl)phenyl]pyridine-2-carboxamide] | 100 | – | – | – | – | 4.14 | – | – | 4.25 | 100 | 100 | 100 | 100 | 100 | 4.25 | 4.14
17 | N#Cc1ccc(CNC(=O)c2cc(-c3ccc(S(F)(F)(F)(F)F)cc3)cc(NC(=O)C3CC3)n2)cc1 [Example I-173] | 100 | 100 | 100 | 100 | – | 4.31 | 100 | 100 | 3.98 | – | – | – | – | – | – | –
18 | O=C(NCCC(F)(F)F)c1cc(-c2ccc(OC(F)(F)F)cc2)cc(NC(=O)C2CC2)n1 [Example I-176] | 100 | 100 | 100 | 100 | – | 3.83 | 100 | 100 | – | – | – | – | – | – | – | –
19 | N#Cc1ccc(CNC(=O)c2cc(-c3ccc(SC(F)(F)C(F)F)cc3)cc(NC(=O)C3CC3)n2)cc1 [Example I-178, N-(4-Cyanobenzyl)-6-[(cyclopropylcarbonyl)amino]-4-{4-[(1,1,2,2-tetrafluoroethyl)sulphanyl]phenyl}pyridine-2-carboxamide] | 100 | – | – | – | – | – | – | – | 3.81 | 100 | 100 | 100 | 100 | 100 | 3.81 | –
